Measured values as given in article PMC6008168 (Bioorganic & medicinal chemistry letters, 2017).

Legend:
[1] = Permeability, PAMPA assay; format: in vitro ADME
Toxicity, Cell-TiterGlo = format: cell-based; conditions: n.o.= not observed
PPARδ = biological target: T1, PPARδ (Homo sapiens, UniProt Q03181); assay: PPARδ transcription 2-hybrid assay; format: cell-based; conditions: up to 100 μM
T1 sequence (Q03181 211-439 limits assumed): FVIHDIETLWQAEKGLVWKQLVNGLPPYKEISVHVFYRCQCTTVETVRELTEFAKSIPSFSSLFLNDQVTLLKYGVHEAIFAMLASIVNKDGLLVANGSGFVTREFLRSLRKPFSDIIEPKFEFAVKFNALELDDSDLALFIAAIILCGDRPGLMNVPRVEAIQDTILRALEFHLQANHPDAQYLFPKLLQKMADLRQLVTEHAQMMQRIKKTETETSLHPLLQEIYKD

VDR = biological target: T2, VDR (Homo sapiens, UniProt P11473); assay: VDR transcription assay; format: cell-based; conditions: compared with GW0742
T2 sequence (P11473 1-427): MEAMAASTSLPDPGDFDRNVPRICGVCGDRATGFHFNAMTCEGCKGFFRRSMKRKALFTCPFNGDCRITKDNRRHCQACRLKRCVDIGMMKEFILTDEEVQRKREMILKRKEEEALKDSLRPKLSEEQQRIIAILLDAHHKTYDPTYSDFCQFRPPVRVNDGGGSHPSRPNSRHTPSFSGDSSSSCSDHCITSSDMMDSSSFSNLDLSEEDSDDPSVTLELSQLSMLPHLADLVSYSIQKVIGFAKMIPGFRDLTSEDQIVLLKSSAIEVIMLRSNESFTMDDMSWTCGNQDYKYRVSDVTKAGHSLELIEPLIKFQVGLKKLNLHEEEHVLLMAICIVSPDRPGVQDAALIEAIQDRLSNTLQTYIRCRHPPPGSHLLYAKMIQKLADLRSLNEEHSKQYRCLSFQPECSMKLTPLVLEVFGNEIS

COc1cccc(-c2nc(C)c(COc3cccc(C(=O)O)c3)o2)c1 [10b]
Papp [1]: 132 ×10⁻⁶ cm/s

COc1cccc(-c2nc(C)c(COc3ccc(CC(=O)O)cc3)o2)c1 [12b]
Papp [1]: 132 ×10⁻⁶ cm/s

COC(=O)c1ccc(OCc2oc(-c3cccc(OC)c3)nc2C)cc1 [6b]
Papp [1]: 372 ×10⁻⁶ cm/s

COc1ccccc1-c1nc(C)c(COc2cccc(C(=O)O)c2)o1 [10a]
% Toxicity at 100 μM (Toxicity, Cell-TiterGlo): n.o. | Papp [1]: 263 ×10⁻⁶ cm/s

COc1ccccc1-c1nc(C)c(COc2ccc(CCC(=O)O)cc2)o1 [13a]
Papp [1]: 257 ×10⁻⁶ cm/s

COc1ccccc1-c1nc(C)c(COc2ccccc2C(=O)O)o1 [9a]
Papp [1]: 234 ×10⁻⁶ cm/s

COC(=O)CCc1ccc(OCc2oc(-c3cccc(OC)c3)nc2C)cc1 [8b]
Papp [1]: 457 ×10⁻⁶ cm/s

COc1cccc(-c2nc(C)c(COc3ccccc3C(=O)O)o2)c1 [9b]
Papp [1]: 234 ×10⁻⁶ cm/s

COC(=O)c1ccc(OCc2oc(-c3ccccc3OC)nc2C)cc1 [6a]
Papp [1]: 447 ×10⁻⁶ cm/s

COc1ccccc1-c1nc(C)c(COc2ccc(CC(=O)O)cc2)o1 [12a]
% Toxicity at 100 μM (Toxicity, Cell-TiterGlo): n.o. | Papp [1]: 191 ×10⁻⁶ cm/s

COC(=O)Cc1ccc(OCc2oc(-c3cccc(OC)c3)nc2C)cc1 [7b]
activation of PPARδ-mediated transcription (in words) (PPARδ): without activating | Papp [1]: 479 ×10⁻⁶ cm/s

COC(=O)c1ccccc1OCc1oc(-c2ccccc2OC)nc1C [4a]
Papp [1]: 468 ×10⁻⁶ cm/s

COC(=O)c1cccc(OCc2oc(-c3ccccc3OC)nc2C)c1 [5a]
increased potency in respect to GW0742 (VDR antagonism) (VDR): 10 fold | activation of PPARδ-mediated transcription (in words) (PPARδ): inability to activate | Papp [1]: 380 ×10⁻⁶ cm/s

COc1ccccc1-c1nc(C)c(COc2ccc(C(=O)O)cc2)o1 [11a]
% Toxicity at 100 μM (Toxicity, Cell-TiterGlo): n.o. | Papp [1]: 214 ×10⁻⁶ cm/s

COC(=O)Cc1ccc(OCc2oc(-c3ccccc3OC)nc2C)cc1 [7a]
Papp [1]: 275 ×10⁻⁶ cm/s

COC(=O)c1ccccc1OCc1oc(-c2cccc(OC)c2)nc1C [4b]
Papp [1]: 513 ×10⁻⁶ cm/s

COc1cccc(-c2nc(C)c(COc3ccc(CCC(=O)O)cc3)o2)c1 [13b]
Papp [1]: 120 ×10⁻⁶ cm/s

COc1cccc(-c2nc(C)c(COc3ccc(C(=O)O)cc3)o2)c1 [11b]
Papp [1]: 170 ×10⁻⁶ cm/s

COC(=O)c1cccc(OCc2oc(-c3cccc(OC)c3)nc2C)c1 [5b]
Papp [1]: 427 ×10⁻⁶ cm/s

COC(=O)CCc1ccc(OCc2oc(-c3ccccc3OC)nc2C)cc1 [8a]
Papp [1]: 457 ×10⁻⁶ cm/s
